Data on seven molecules can be found in patent US20230158100A1, “TREATMENT OF PANX1 ASSOCIATES DISEASES” (NURITAS LIMITED, priority 2020, published 2023).

Like-named read-outs stand apart in the source and are kept apart here. No end group written: not given here. Cy5 = Cy5 cyanine dye label

The conditions of series [1]: cited from earlier work.
A further series has as its system IL-8. In words: IL-8 secretion in LPS-treated HepG2 cells. Format: cell-based. As to conditions: peptide 5 ng/ml for 24 h, then 100 ng/mL LPS for 24 h. As to the method:
FIG. 4 illustrates peptide of SEQUENCE ID NO. […] HepG2 cells were treated with peptide (5 ng/ml) for 24 h before treating with 100 ng/mL of LPS for 24 h. Data presented are the mean±SEM of at least 2 independent experiments. (*p<0.05 **p<0.01 ***p<0.001)
HepG2 cells were treated with peptide (5 ng/ml) for 24 h before treating with 100 ng/mL of LPS for 24 h. Data presented are the mean±SEM of at least two independent experiments. (*p<0.05 **p<0.01 ***p<0.001)

Series [2] deals with PANX1. In words: Retrogenix cell microarray, confirmation on fixed and live cells. As to conditions: for binding / specific interaction with PANX1: fixed HEK293 cells, 0.01 and 0.05 μg/ml, two separate expression clones. It is filed as binding, human. As to the method:
(§1) CY5-labelled peptide (SEQUENCE ID NO. 1; (0.01 & 0.05 μg/ml) was screened for binding against fixed HEK293 Cells expressing 5528 human plasma membrane proteins. Screening was carried across two replicates and initial hits were selected and screened in more specific confirmation assay.
(§2) To confirm extracellular membrane binding of the peptide in culture, receptor screening was carried out (Retrogenix). Retrogenix's cell microarray technology was used to screen for specific cell surface target interactions of a CY5 labelled peptide (pep_HTWCFL the CY5 labelled version of SEQUENCE ID NO. 1).
(§3) Under this condition, the test peptide was screened for binding against fixed human HEK293 cells, individually expressing 5528 full-length human plasma membrane proteins and secreted proteins.
(§4) Each primary hit was then re-expressed, along with two control receptors (CD20 (MS4A1) and EGFR), and re-tested with 0.01 μg/ml and 0.05 μg/ml test peptide, equal concentrations of a control peptide, and other positive and negative control treatments. […] Among these were PANX1 (from two separate expression clones), SLC35F2 and TACR1.

Series [3] has as its system human skeletal muscle cells (HSKMC Cells). In words: Cell penetration imaging in human skeletal muscle cells. It is filed as cell-based. To be noted: 60 mins incubation, CY5 tagged peptide. As to the method:
An array of imaging studies was conducted to determine the kinetics and nature of the peptide (SEQUENCE ID NO. 1) interaction with target cell types. These experiments were required to determine if the peptide target was an intra or extra cellular protein. […] Control staining with the unlabelled CY5 dye should no uptake in this cell type.

The next series deals with α-SMA. In words: Anti-fibrotic activity in human primary hepatic stellate cells (α-SMA). It is filed as cell-based. As to the method: FIG. 5A and B illustrate peptide of SEQUENCE ID NO. […] (A) Confocal imaging of human stellate cells treated with TGF-β1 to stimulate expression of α-SMA before treatment with peptide (5 nM). (B) Quantification of α-SMA expression.
Human stellate cells were treated with TGF-β1 to stimulate expression of α-SMA (smooth muscle action; primary marker for fibrosis) before treatment with the peptide (5 nM; SEQUENCE ID NO. 1). Confocal imaging of the cells was undertaken.

For series [4], the target named is T1, Panx1 (Homo sapiens, UniProt Q96RD7). The series can be described thus: Intracellular peptide concentration after PANX1 activation (Caco2). To be noted: Caco2 cells, before and after channel activation by increased extracellular calcium. Also noted: endogenous in cells; host or cells: Caco2. Format: cell-based. As to the method: The peptide of the invention (SEQUENCE ID NO. 1) was added to cells (Caco2). The PANX1 channel was activated in cells by increasing extracellular calcium levels. The intracellular concentration of the peptide was measured before and after activation.

For series [5], the target named is T1, Panx1. In words: Ca2+ flux assay and flow cytometry in THP-1 cells. As to conditions: 45 s preincubation with 1 μM peptide, ATP stimulation. Details: endogenous in cells; host or cells: THP-1. It is filed as cell-based. An excerpt:
FIG. 9A, B and C illustrate downregulation of ATP mediated Ca2+ ions flux by the peptide (SEQUENCE ID NO. 1). ATP treatment of THP-1 cells causes an increase in detection of FITC labelled Ca^2+ ions (A). […] Comparison of FITC fluorescent units detected via flow cytometry, independent of the peptide and in the presence of the peptide (C).
Panx-1 binding with the peptide (SEQUENCE ID NO. 1) was investigated using a Ca^2+ flux assay and flow cytometry. Panx-1 plays an important role in regulating the Ca^2+ ion and ATP balance at the cell membrane. This relationship can be leveraged to monitor the activity of Panx1. Blocking Panx1 should lead to a significant decrease in Ca^2+ flux in the cell, in response to ATP stimulation.
THP-1 cells were incubated with a FITC fluorescent dye for a period of 30 min in order to label intracellular Ca^2+ ions. Cells were then stimulated with ATP to drive calcium flux from the cell, this increase in fluorescence is then detected by flow cytometry. Prior to ATP stimulation, the cells are incubated with 1 μM doses of the peptide in order to investigate if a drop in calcium flux is observed, this drop caused by binding of the peptide to Panx1, thus inhibiting ATP mediated calcium flux.
(Calcium assays in cells follow changes in intracellular calcium, usually with a dye or a luminescent sensor.)

Series [6] has as its target T2, TACR1 (Substance P receptor) (Homo sapiens, UniProt P25103).
T2 construct: individually expressing 5528 full-length human plasma membrane proteins and secreted proteins; host or cells: HEK293 (fixed and live)
The series can be described thus: Retrogenix cell microarray, confirmation on fixed and live cells. It is filed as binding. As to conditions: for binding / specific interaction with TACR1: fixed HEK293 cells, 0.01 and 0.05 μg/ml. As to the method: as §1, §2, §3, §4

In series [7] the target is T3, SLC35F2 (Homo sapiens, UniProt Q8IXU6).
T3 construct: individually expressing 5528 full-length human plasma membrane proteins and secreted proteins; host or cells: HEK293 (fixed and live)
T3 sequence (Q8IXU6 1-374): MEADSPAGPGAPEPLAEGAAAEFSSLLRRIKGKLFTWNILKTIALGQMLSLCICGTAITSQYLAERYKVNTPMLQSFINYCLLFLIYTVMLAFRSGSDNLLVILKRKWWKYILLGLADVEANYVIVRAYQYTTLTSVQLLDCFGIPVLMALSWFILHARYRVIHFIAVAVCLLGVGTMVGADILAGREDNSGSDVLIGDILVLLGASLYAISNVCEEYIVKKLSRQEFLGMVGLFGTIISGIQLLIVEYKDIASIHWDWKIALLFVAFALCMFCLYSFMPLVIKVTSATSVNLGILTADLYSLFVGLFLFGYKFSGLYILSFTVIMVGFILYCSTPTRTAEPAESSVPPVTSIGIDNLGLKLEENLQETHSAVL
Described as above. It is filed as binding. To be noted: for binding / specific interaction with SLC35F2: fixed HEK293 cells, 0.01 and 0.05 μg/ml. As for the experimental part:
as §1, §2, §3, §4

The test system of series [8] is 5528 full-length human plasma membrane proteins and secreted proteins. In words: Retrogenix cell microarray screen on fixed HEK293 cells. Format: binding. As for the experimental part: as §1, §2, §3, §4
For series [9] the following is noted: Werle and Bernkop-Schnürch 2006; cited from earlier work.
For a further series, the system named is lipoproteins. As to conditions: binding to lipoproteins; cited from earlier work.
Series [10] deals with T4, SLC35F2 (human, UniProt Q8IXU6 1-374).
T4 construct: whole, on cells
T4 sequence (looked up): T3 sequence (Q8IXU6 1-374)
In words: cell microarray, CY5-labelled peptide on fixed HEK293 cells expressing human plasma membrane proteins.

Series [11] has as its target T5, TACR1 (Substance P receptor) (human, UniProt P25103 1-407).
T5 construct: whole, on cells
The series is described as above.

Sequence of PANX1 (Q96RD7 1-400 limits assumed): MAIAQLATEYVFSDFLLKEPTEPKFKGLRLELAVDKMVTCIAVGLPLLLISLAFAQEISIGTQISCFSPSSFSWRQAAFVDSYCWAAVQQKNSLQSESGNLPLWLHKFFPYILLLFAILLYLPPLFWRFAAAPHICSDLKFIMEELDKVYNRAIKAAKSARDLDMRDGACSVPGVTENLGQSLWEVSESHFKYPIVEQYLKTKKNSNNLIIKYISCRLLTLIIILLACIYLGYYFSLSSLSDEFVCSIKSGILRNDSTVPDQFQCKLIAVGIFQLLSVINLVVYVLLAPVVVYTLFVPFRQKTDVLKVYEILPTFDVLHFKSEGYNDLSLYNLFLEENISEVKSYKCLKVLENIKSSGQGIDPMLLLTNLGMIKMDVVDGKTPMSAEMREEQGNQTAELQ
T2 sequence (P25103 whole entry): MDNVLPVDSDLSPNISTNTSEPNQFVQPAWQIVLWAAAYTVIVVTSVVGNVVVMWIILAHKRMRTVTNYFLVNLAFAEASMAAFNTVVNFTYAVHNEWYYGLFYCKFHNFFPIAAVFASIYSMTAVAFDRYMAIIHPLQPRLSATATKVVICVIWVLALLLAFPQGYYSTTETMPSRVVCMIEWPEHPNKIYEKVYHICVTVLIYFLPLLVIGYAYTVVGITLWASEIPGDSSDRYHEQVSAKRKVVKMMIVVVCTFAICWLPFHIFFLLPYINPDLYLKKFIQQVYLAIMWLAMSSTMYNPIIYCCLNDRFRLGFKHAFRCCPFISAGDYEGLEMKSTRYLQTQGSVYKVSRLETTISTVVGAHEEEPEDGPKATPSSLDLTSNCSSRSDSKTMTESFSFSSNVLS
T1 sequence (Q96RD7 whole entry): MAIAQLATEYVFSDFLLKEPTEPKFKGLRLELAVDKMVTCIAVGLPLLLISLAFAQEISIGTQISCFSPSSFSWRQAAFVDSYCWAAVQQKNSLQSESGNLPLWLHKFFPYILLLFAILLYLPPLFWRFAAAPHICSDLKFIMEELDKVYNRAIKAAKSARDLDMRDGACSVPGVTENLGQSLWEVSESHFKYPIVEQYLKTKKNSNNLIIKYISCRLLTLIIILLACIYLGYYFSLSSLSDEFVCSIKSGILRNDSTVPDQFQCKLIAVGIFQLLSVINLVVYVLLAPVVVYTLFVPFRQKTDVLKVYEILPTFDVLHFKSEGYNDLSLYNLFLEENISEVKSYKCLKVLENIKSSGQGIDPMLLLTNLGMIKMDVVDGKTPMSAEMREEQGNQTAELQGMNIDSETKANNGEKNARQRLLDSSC
T5 sequence (P25103 whole entry): as the sequence (P25103 whole entry) above

The term half-life denotes the time needed for the level to fall by half in the phase considered. Consider `NC(=O)CC[C@@H]1NC(=O)[C@H](Cc2ccccc2)NC(=O)[C@H](Cc2ccc(O)cc2)NC(=O)[C@@H](N)CSSC[C@@H](C(=O)N2CCC[C@H]2C(=O)N[C@@H](CCCN=C(N)N)C(=O)NCC(N)=O)NC(=O)[C@H](CC(N)=O)NC1=O` [vasopressin], for which the half-life in [1] (in humans) is 0.167 to 0.583 h.

As for WKDEAGKPLVK [SEQUENCE ID NO. 1], the “secretion of IL-8” value in the series on IL-8 was “reduces the secretion of IL-8”. In addition, the “binding / specific interaction with PANX1” value in the series on PANX1 [2] is on record as “Highly Selective Targets”. Further, in series [3], the intracellular accumulation entry is “significant intracellular accumulation”. The “anti-fibrotic activity compared with Elafibranor” value in the series on α-SMA (equivalent molar doses) was “outperformed Elafibranor”. Also, in the series with α-SMA (human stellate cells treated with TGF-β1, peptide 5 nM, confocal imaging), the α-SMA expression entry is listed as “decrease in α-SMA expression”. For the same molecule, the “intracellular concentration of the peptide” value with Panx1 [4] is “increased when the channel is activated”. The “ATP mediated Ca2+ ion flux” value in the series with Panx1 [5] is reported as “blocks ATP mediated Ca^2+ ion flux”. The “binding / specific interaction with TACR1” value in series [6] was “Highly Selective Targets”. Also, the “binding / specific interaction with SLC35F2” value with SLC35F2 [7] is “Highly Selective Targets”.

For “pep_HTWCFL: the CY5 labelled version of SEQUENCE ID NO. 1 (WKDEAGKPLVK; also: Cy5 label, position not given here)”, the “primary hits in initial screening” value in series [8] (0.01 μg/ml test peptide on fixed cells for 30 minutes) is on record as 43. The “specific interactions for the test peptide after re-expression of primary hits” value in series [8] (re-tested with 0.01 μg/ml and 0.05 μg/ml test peptide, fixed cells) was “Nine”. Also, the “binding / specific interaction with PANX1” value in the series on PANX1 [2] is given as “specific interactions”. Further, the signal to background result in the series on PANX1 [2] (fixed cells) is recorded as “greatest signal to background”. Also, the “binding signal on live cells” value in the series on PANX1 [2] (live cell microarray) was “lack of signals seen on live cells”. In series [6], the “binding / specific interaction with TACR1” value is listed as “specific interactions”. The “specific interaction with TACR1” value in series [6] (live cell microarray) is recorded as “specific interactions”. The “binding / specific interaction with SLC35F2” value in the series with SLC35F2 [7] is recorded as “specific interactions”. The “specific interaction with SLC35F2” value in the series with SLC35F2 [7] (live cell microarray) is on record as “specific interactions”.

With `CCNC(=O)[C@@H]1CCCN1C(=O)[C@H](CCCNC(=N)N)NC(=O)[C@H](CC(C)C)NC(=O)[C@@H](COC(C)(C)C)NC(=O)[C@H](Cc1ccc(O)cc1)NC(=O)[C@H](CO)NC(=O)[C@H](Cc1c[nH]c2ccccc12)NC(=O)[C@H](Cc1cnc[nH]1)NC(=O)[C@@H]1CCC(=O)N1` [buserelin], the half-life entry in series [1] (in humans, in words) is recorded as “much longer half-life”.

What is called fraction unbound is free concentration divided by total concentration. For the molecule `C[C@@H](O)[C@@H]1NC(=O)[C@H](CCCCN)NC(=O)[C@@H](Cc2c[nH]c3ccccc23)NC(=O)[C@H](Cc2ccccc2)NC(=O)[C@@H](NC(=O)[C@H](N)Cc2ccccc2)CSSC[C@@H](C(=O)N[C@H](CO)[C@@H](C)O)NC1=O` [octreotide], the “plasma half life time” value in series [9] was 1.5 h. Further, in the series with lipoproteins, the fraction unbound is given as 0.65. Moreover, the half-life result in series [1] (in humans) is “about 100 min”.

As for `NC(=O)CC[C@@H]1NC(=O)[C@H](Cc2ccccc2)NC(=O)[C@H](Cc2ccc(O)cc2)NC(=O)CCSSC[C@@H](C(=O)N2CCC[C@H]2C(=O)N[C@H](CCCN=C(N)N)C(=O)NCC(N)=O)NC(=O)[C@H](CC(N)=O)NC1=O` [desmopressin], the half-life in [1] (human, in vivo) is given as 3.7 h.

B1: CY5-labelled peptide (pep_HTWCFL, the CY5 labelled version of SEQUENCE ID NO. 1) (peptide)
peptide: WKDEAGKPLVK-Cy5
notes: also called test peptide; C-terminal CY5 Tagged peptide
Regarding B1, the binding result (in the series with SLC35F2 [10]; in series [11]) was “binds” each time.
